Values of other authors as cited in article PMC9633261, “Preclinical evaluation and first in human study of Al^18F radiolabeled ODAP-urea-based PSMA targeting ligand for PET imaging of prostate cancer” (Frontiers in Oncology, 2022).
Read-outs that look alike come from different tables or passages of the source.

Row | absorbed dose kidneys (reported by Afshar-Oromieh et al. ref [37]) | absorbed dose kidneys (reported by Pfob et al. ref [38]) | absorbed dose kidneys (ref [39]) | SMILES
1 | 0.262 mGy/MBq | 0.121 mGy/MBq |  | O=C([O-])CN(CCN(CC(=O)[O-])Cc1cc(CCC(=O)NCCCCCC(=O)NCCCC[C@H](NC(=O)N[C@@H](CCC(=O)O)C(=O)O)C(=O)O)ccc1[O-])Cc1cc(CCC(=O)O)ccc1[O-].[68Ga+3].[OH3+] [^68Ga-PSMA-11]
2 |  |  | 0.0945 mGy/MBq | O=C(O)CC[C@H](NC(=O)N[C@@H](CCCCNC(=O)c1ccc([18F])nc1)C(=O)O)C(=O)O [^18F-DCFPyL]
